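Growth conditions: 96-well plates. Treatment: test compound, 48 hours, 5 concentrations. Analysis: linear interpolation between bracketing concentrations; unreached endpoints set to highest concentration. Abbreviation: GI50, concentration required for 50% inhibition of growth. TGI denotes the concentration required for complete inhibition of growth.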
Assays:
Assay in all cases: inhibition of tumour cell growth, NCI panel, 48 h; in the data active = GI50 below about 0.43 µM; inactive = the rest
[1] = system: 786-0 renal
[2] = system: A498 renal
[3] = system: A549 NSCLC
[4] = system: ACHN renal
[5] = system: BT-549 breast
[6] = system: CAKI-1 renal
[7] = system: CCRF-CEM leukemia
[8] = system: COLO 205 colon
[9] = system: DU-145 prostate
[10] = system: EKVX NSCLC
[11] = system: HCC-2998 colon
[12] = system: HCT-116 colon
[13] = system: HCT-15 colon
[14] = system: HOP-62 NSCLC
[15] = system: HOP-92 NSCLC
[16] = system: HS 578T breast
[17] = system: HT29 colon
[18] = system: IGROV1 ovarian
[19] = system: K-562 leukemia
[20] = system: KM12 colon
[21] = system: LOX IMVI melanoma
[22] = system: M14 melanoma
[23] = system: MCF7 breast
[24] = system: MDA-MB-231 breast
[25] = system: MDA-MB-435
[26] = system: MOLT-4 leukemia
[27] = system: NCI-H226 lung
[28] = system: NCI-H23 lung
[29] = system: NCI-H522 lung
[30] = system: NCI/ADR-RES ovarian
[31] = system: OVCAR-3 ovarian
[32] = system: OVCAR-4 ovarian
[33] = system: OVCAR-5 ovarian
[34] = system: OVCAR-8 ovarian
[35] = system: PC-3 prostate
[36] = system: RPMI-8226 leukemia
[37] = system: RXF 393 renal
[38] = system: SF-268 CNS
[39] = system: SF-295 CNS
[40] = system: SF-539 CNS
[41] = system: SK-MEL-2 melanoma
[42] = system: SK-MEL-28 melanoma
[43] = system: SK-MEL-5 melanoma
[44] = system: SK-OV-3 ovarian
[45] = system: SN12C renal
[46] = system: SNB-19 CNS
[47] = system: SNB-75 CNS
[48] = system: SW-620 colon
[49] = system: T-47D breast
[50] = system: TK-10 renal
[51] = system: U251 CNS
[52] = system: UACC-257 melanoma
[53] = system: UACC-62 melanoma
[54] = system: UO-31 renal
[55] = system: HL-60(TB) leukemia
[56] = system: NCI-H460 lung

NC1CC(=O)c2ccccc21 (stereo unspecified)
> 100 µM: TGI [1] | TGI [2] | TGI [3] | TGI [4] | TGI [5] | TGI [6] | TGI [7] | TGI [8] | TGI [9] | TGI [10] | TGI [11] | TGI [12] | TGI [13] | TGI [14] | TGI [15] | TGI [16] | TGI [17] | TGI [18] | TGI [19] | TGI [20] | TGI [21] | TGI [22] | TGI [23] | TGI [24] | TGI [25] | TGI [26] | TGI [27] | TGI [28] | TGI [29] | TGI [30] | TGI [31] | TGI [32] | TGI [33] | TGI [34] | TGI [35] | TGI [36] | TGI [37] | TGI [38] | TGI [39] | TGI [40] | TGI [41] | TGI [42] | TGI [43] | TGI [44] | TGI [45] | TGI [46] | TGI [47] | TGI [48] | TGI [49] | TGI [50] | TGI [51] | TGI [52] | TGI [53] | TGI [54]

CCN1C2=C(SC(=S)C1=C1SC(C(=O)OC)=C(C(=O)OC)S1)SC(=Nc1ccc(OC)cc1)C2=O
> 100 µM: TGI [7] | TGI [16] | TGI [19] | TGI [24] | TGI [34] | TGI [35] | TGI [45] | TGI [50]
3.77 µM: TGI [40]
6.19 µM: TGI [33]
3.43 µM: TGI [9] | TGI [21]
inactive: GI50 [1] 1.8 µM | GI50 [2] 2.03 µM | GI50 [3] 13.1 µM | GI50 [4] 1.82 µM | GI50 [5] 1.71 µM | GI50 [6] 1.81 µM | GI50 [7] 2.09 µM | GI50 [8] 1.92 µM | GI50 [9] 1.73 µM | GI50 [10] 3.62 µM | GI50 [11] 1.95 µM | GI50 [12] 1.59 µM | GI50 [13] 3.02 µM | GI50 [55] 1.79 µM | GI50 [14] 1.95 µM | GI50 [15] 2.97 µM | GI50 [16] 3.93 µM | GI50 [19] 2.36 µM | GI50 [20] 1.67 µM | GI50 [21] 1.69 µM | GI50 [22] 1.75 µM | GI50 [23] 1.9 µM | GI50 [24] 3.39 µM | GI50 [25] 2.21 µM | GI50 [26] 1.54 µM | GI50 [27] 2.25 µM | GI50 [28] 2.27 µM | GI50 [56] 2.02 µM | GI50 [29] 1.59 µM | GI50 [30] 3.05 µM | GI50 [31] 1.79 µM | GI50 [33] 2.37 µM | GI50 [34] 2.82 µM | GI50 [35] 3.01 µM | GI50 [36] 2.38 µM | GI50 [37] 1.88 µM | GI50 [38] 2.56 µM | GI50 [39] 1.31 µM | GI50 [40] 1.86 µM | GI50 [41] 2.09 µM | GI50 [42] 1.69 µM | GI50 [43] 1.63 µM | GI50 [45] 2.76 µM | GI50 [46] 2.89 µM | GI50 [47] 1.1 µM | GI50 [48] 1.77 µM | GI50 [49] 2.16 µM | GI50 [50] 5.08 µM | GI50 [51] 1.65 µM | GI50 [52] 1.76 µM | GI50 [53] 1.73 µM
3.87 µM: TGI [52]
33.3 µM: TGI [13]
7.19 µM: TGI [30]
5.26 µM: TGI [27]
3.84 µM: TGI [53]
5.55 µM: TGI [25]
4.65 µM: TGI [56]
9.19 µM: TGI [36]
26.1 µM: TGI [15]
3.27 µM: TGI [51]
3.39 µM: TGI [31]
5.75 µM: TGI [23]
4.06 µM: TGI [5]
10.8 µM: TGI [46]
5.74 µM: TGI [8]
3.13 µM: TGI [20]
3.96 µM: TGI [29]
3.7 µM: TGI [48]
3.25 µM: TGI [42]
5.29 µM: TGI [26] | TGI [41]
4.17 µM: TGI [28]
7.64 µM: TGI [38]
6.83 µM: TGI [55]
2.53 µM: TGI [47]
3.98 µM: TGI [37]
3.34 µM: TGI [1]
21.3 µM: TGI [10]
3.08 µM: TGI [43]
3.8 µM: TGI [14]
3.9 µM: TGI [6]
62.5 µM: TGI [3]
3.75 µM: TGI [22]
3.11 µM: TGI [12]
5.88 µM: TGI [49]
3.55 µM: TGI [39]
5.37 µM: TGI [2]
3.66 µM: TGI [11]
3.58 µM: TGI [4]

From PubChem BioAssay (NCI)
